Test results: the NIST ThermoML archive (doi:10.1021/je501133u)

Experiments:
[1] = 100 kPa, Liquid; for viscosity: Falling or rolling sphere viscometry; for mass density: Vibrating tube method
[2] = xn = mol fraction of the nth substance listed; settings: 100 kPa, Liquid, x1 = 1; for viscosity: Falling or rolling sphere viscometry; for mass density: Vibrating tube method

CCO [ethanol]
[1]
Settings	mass density [kg/m3]	viscosity [mPa·s]
293.15 K	790.1	1.15
298.15 K	785.9	1.07
303.15 K	781.6	0.97
308.15 K	777.2	0.89
313.15 K	772.9	0.81
318.15 K	768.4	0.76
323.15 K	764	0.68
328.15 K	759.4	0.63

CCO [ethanol] + CCCCCCCO
[2]
Settings	mass density [kg/m3]	viscosity [mPa·s]
293.15 K	790.1	1.15
298.15 K	785.9	1.07
303.15 K	781.6	0.97
308.15 K	777.2	0.89
313.15 K	772.9	0.81
318.15 K	768.4	0.76
323.15 K	764	0.68
328.15 K	759.4	0.63

CCO [ethanol] + CCCCCCO
[2]
Settings	mass density [kg/m3]	viscosity [mPa·s]
293.15 K	790.1	1.15
298.15 K	785.9	1.07
303.15 K	781.6	0.97
308.15 K	777.2	0.89
313.15 K	772.9	0.81
318.15 K	768.4	0.76
323.15 K	764	0.68
328.15 K	759.4	0.63

CCCCCCCO [heptan-1-ol]
[1]
Settings	mass density [kg/m3]	viscosity [mPa·s]
293.15 K	822.3	7.15
298.15 K	818.8	6.07
303.15 K	815.3	5.18
308.15 K	811.8	4.44
313.15 K	808.2	3.83
318.15 K	804.6	3.33
323.15 K	801	2.89
328.15 K	797.4	2.54

CCCCCCO [hexan-1-ol]
[1]
Settings	mass density [kg/m3]	viscosity [mPa·s]
293.15 K	818.9	5.35
298.15 K	815.3	4.56
303.15 K	811.7	3.9
308.15 K	808.1	3.36
313.15 K	804.5	2.91
318.15 K	800.8	2.54
323.15 K	797.1	2.23
328.15 K	793.4	1.97
